Assay results from ChEMBL document CHEMBL1201862, “PubChem BioAssay data set” (2004).
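These data come from cells grown in 96-well plates and exposed to compound for 48 hours at five concentrations. The concentration for 50% growth inhibition is given as GI50.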 Active and inactive are the calls of the source. No stated cut-off is given here; in the data, active = GI50 up to about 1.1 µM and inactive = higher.

Key:
Test in all cases: inhibition of tumour cell growth, NCI panel, 48 h
OVCAR-8 = test system: OVCAR-8
NCI-H460 = test system: NCI-H460
OVCAR-4 = test system: OVCAR-4
SK-MEL-5 = test system: SK-MEL-5
UO-31 = test system: UO-31
SN12C = test system: SN12C
ACHN = test system: ACHN
HT-29 = test system: HT-29
OVCAR-3 = test system: OVCAR-3
EKVX = test system: EKVX
HCT-15 = test system: HCT-15
UACC-62 = test system: UACC-62
HCT-116 = test system: HCT-116
TK-10 = test system: TK-10
SNB-19 = test system: SNB-19
K562 = test system: K562
MOLT-4 = test system: MOLT-4
COLO 205 = test system: COLO 205
U-251 = test system: U-251
SNB-75 = test system: SNB-75

SMILES | GI50 (OVCAR-8) | GI50 (NCI-H460) | GI50 (OVCAR-4) | GI50 (SK-MEL-5) | GI50 (UO-31) | GI50 (SN12C) | GI50 (ACHN) | GI50 (HT-29) | GI50 (OVCAR-3) | GI50 (EKVX) | GI50 (HCT-15) | GI50 (UACC-62) | GI50 (HCT-116) | GI50 (TK-10) | GI50 (SNB-19) | GI50 (K562) | GI50 (MOLT-4) | GI50 (COLO 205) | GI50 (U-251) | GI50 (SNB-75)
COc1ccc2c(Cc3c4ccccc4cc4ccccc34)cncc2c1O | 1.1 µM (active) | 1.45 µM (inactive) | 5.37 µM (inactive) | 0.658 µM (active) | 4.4 µM (inactive) | 5.01 µM (inactive) | 2.14 µM (inactive) | 14.2 µM (inactive) | 1.98 µM (inactive) | 8.22 µM (inactive) | 1.15 µM | 2.9 µM (inactive) | 1.48 µM (inactive) | 3.94 µM (inactive) | 2.08 µM (inactive) | 0.655 µM (active) | 2.68 µM (inactive) | 17.7 µM (inactive) | 1.45 µM (inactive) | 3.9 µM (inactive)
NN=C(S)Nc1cccc(Cl)c1 | 81.5 µM (inactive) | 64.1 µM (inactive) | 39.9 µM (inactive) | > 100 µM (inactive) | > 100 µM (inactive) | 94.4 µM (inactive) | > 100 µM (inactive) | 37.4 µM (inactive) | 29.3 µM (inactive) | > 100 µM (inactive) | 48.2 µM | > 100 µM (inactive) | 36.3 µM (inactive) | > 100 µM (inactive) | > 100 µM (inactive) | 36.6 µM (inactive) | 35.4 µM (inactive) | 89.7 µM (inactive) | > 100 µM (inactive) | > 100 µM (inactive)
CN(CC(=O)O)c1ncc2c(n1)-c1ccccc1OC2c1ccccc1 (centres undefined) | > 100 µM (inactive) | 89.7 µM (inactive) | > 100 µM (inactive) | > 100 µM (inactive) | 38 µM (inactive) | > 100 µM (inactive) | > 100 µM (inactive) | > 100 µM (inactive) | > 100 µM (inactive) | > 100 µM (inactive) | > 100 µM | 92.5 µM (inactive) |  | > 100 µM (inactive) | > 100 µM (inactive) | 71.8 µM (inactive) | 29.2 µM (inactive) | > 100 µM (inactive) | > 100 µM (inactive) | 43.6 µM (inactive)
N=C(N)NCC(N)C(=O)O (centres undefined) | > 100 µM (inactive) | > 100 µM (inactive) | > 100 µM (inactive) | > 100 µM (inactive) | > 100 µM (inactive) | > 100 µM (inactive) | > 100 µM (inactive) | > 100 µM (inactive) | > 100 µM (inactive) | > 100 µM (inactive) | > 100 µM | > 100 µM (inactive) | > 100 µM (inactive) | > 100 µM (inactive) | > 100 µM (inactive) | > 100 µM (inactive) |  | > 100 µM (inactive) | > 100 µM (inactive) | > 100 µM (inactive)
COc1ccc2c(c1)OC[C@@H]1c3cc(O)c(OCc4ccccc4)cc3O[C@H]21 | 29.5 µM (inactive) | 17.3 µM (inactive) | 16.6 µM (inactive) | 13.1 µM (inactive) | 20.1 µM (inactive) |  | 22.9 µM (inactive) | 34.2 µM (inactive) | 38 µM (inactive) | 19.4 µM (inactive) | 22 µM | 18.1 µM (inactive) | 29.9 µM (inactive) | 32.7 µM (inactive) | 46.8 µM (inactive) | 31.8 µM (inactive) | 29.5 µM (inactive) | 27.9 µM (inactive) | 23.7 µM (inactive) | 14.2 µM (inactive)
COc1ccc(CC2COc3cc(O)cc(O)c3C2=O)cc1O (centres undefined) | 11.9 µM (inactive) | 6.15 µM (inactive) | 11.8 µM (inactive) | 5.13 µM (inactive) | 17 µM (inactive) | 8.34 µM (inactive) | 24.4 µM (inactive) | 13.6 µM (inactive) | 2.3 µM (inactive) | > 100 µM (inactive) | 3.16 µM | 8.57 µM (inactive) |  | 15.4 µM (inactive) | 4.83 µM (inactive) | 3.13 µM (inactive) | 4.3 µM (inactive) | 20.4 µM (inactive) | 4.89 µM (inactive) | 1.37 µM (inactive)
O=C(CCC(NC(=O)OCc1ccccc1)C(=O)OCc1ccccc1)Nc1cccc(OCc2ccccc2)c1 (centres undefined) | 26.5 µM (inactive) | 23.6 µM (inactive) | 30.2 µM (inactive) |  |  | 20.2 µM (inactive) | 29.7 µM (inactive) | 29.9 µM (inactive) | 22.3 µM (inactive) | 35.6 µM (inactive) | 18.3 µM | 32.8 µM (inactive) | 19.2 µM (inactive) | 29.4 µM (inactive) | 51.3 µM (inactive) | 24.2 µM (inactive) | 26.4 µM (inactive) | 15.7 µM (inactive) | 30.3 µM (inactive) | 35.6 µM (inactive)
Cc1ccc(S(=O)(=O)OCCOCCOCCOCCOCCOS(=O)(=O)c2ccc(C)cc2)cc1 | 22.6 µM (inactive) | 36.7 µM (inactive) | 51.3 µM (inactive) | 18.4 µM (inactive) | 28.8 µM (inactive) | 39.7 µM (inactive) | 36.6 µM (inactive) | 28.3 µM (inactive) | 21.7 µM (inactive) | 94.2 µM (inactive) | 55.6 µM | 61.4 µM (inactive) | 52.5 µM (inactive) | 36.7 µM (inactive) | > 100 µM (inactive) | 31.7 µM (inactive) | 14.4 µM (inactive) | 17.2 µM (inactive) | 58.3 µM (inactive) | > 100 µM (inactive)
